Where only a bound is given, the exact number is not on record here.

The subject of the first test is DU-145. Kind of test: Antiproliferative activity against human DU145 cells. Type of test: functional, cell-based.
In turn, `COc1c(C)c2c(c(O)c1C/C=C(\C)CCC(=O)N[C@H](C(=O)O)C(C)C)C(=O)OC2` showed an IC50 of more than 100 µM.

`COc1c(C)c2c(c(O)c1C/C=C(\C)CCC(=O)N[C@@H](C(=O)O)C(C)C)C(=O)OC2` had an IC50 of more than 100 µM.

Regarding `COc1c(C)c2c(c(O)c1C/C=C(\C)CCC(=O)N[C@@H](Cc1c[nH]c3ccccc13)C(=O)NC[C@H]1O[C@@H](n3cnc4c(N)ncnc43)[C@H](O)[C@@H]1O)C(=O)OC2`, the IC50 is more than 100 µM.

For `COc1c(C)c2c(c(O)c1C/C=C(\C)CCC(=O)N[C@H](Cc1ccccc1)C(=O)O)C(=O)OC2`, the IC50 is 10 µM.

For the compound `COc1c(C)c2c(c(O)c1C/C=C(\C)CCC(=O)N[C@@H](Cc1ccc(O)cc1)C(=O)O)C(=O)OC2`, the IC50 is more than 100 µM.

In turn, `COc1c(C)c2c(c(O)c1C/C=C(\C)CCC(=O)NCC(=O)NC[C@H]1O[C@@H](n3cnc4c(N)ncnc43)[C@H](O)[C@@H]1O)C(=O)OC2` registered an IC50 of more than 100 µM.

Compound `COC(=O)[C@@H](NC(=O)CC/C(C)=C/Cc1c(O)c2c(c(C)c1OC)COC2=O)C(C)C` returned an IC50 of 39 µM.

The subject of a further test is K562. Kind of test: Antiproliferative activity against human K562 cells. It is filed as functional, cell-based.
Regarding `COc1c(C)c2c(c(O)c1C/C=C(\C)CCC(=O)N[C@H](C(=O)O)C(C)C)C(=O)OC2`, the half-inhibitory concentration (IC50) came out at 55 µM.

`COc1c(C)c2c(c(O)c1C/C=C(\C)CCC(=O)N[C@@H](C(=O)O)C(C)C)C(=O)OC2` showed an IC50 of more than 100 µM.

As for `COc1c(C)c2c(c(O)c1C/C=C(\C)CCC(=O)N[C@@H](Cc1c[nH]c3ccccc13)C(=O)NC[C@H]1O[C@@H](n3cnc4c(N)ncnc43)[C@H](O)[C@@H]1O)C(=O)OC2`, the IC50 is more than 100 µM.

`COc1c(C)c2c(c(O)c1C/C=C(\C)CCC(=O)N[C@H](Cc1ccccc1)C(=O)O)C(=O)OC2` returned an IC50 of more than 100 µM.

`COc1c(C)c2c(c(O)c1C/C=C(\C)CCC(=O)N[C@@H](Cc1ccc(O)cc1)C(=O)O)C(=O)OC2` came in with an IC50 of more than 100 µM.

The compound `COc1c(C)c2c(c(O)c1C/C=C(\C)CCC(=O)NCC(=O)NC[C@H]1O[C@@H](n3cnc4c(N)ncnc43)[C@H](O)[C@@H]1O)C(=O)OC2` registered an IC50 of more than 100 µM.

In turn, `COC(=O)[C@@H](NC(=O)CC/C(C)=C/Cc1c(O)c2c(c(C)c1OC)COC2=O)C(C)C` gave an IC50 of 8.3 µM.

A further test addresses Inosine-5'-monophosphate dehydrogenase 2 (Homo sapiens, UniProt P12268). Kind of test: Inhibition of IMPDH2 (unknown origin).
Regarding `COc1c(C)c2c(c(O)c1C/C=C(\C)CCC(=O)N[C@H](C(=O)O)C(C)C)C(=O)OC2`, affinity was put at a Ki of 0.175 µM.

For the compound `COc1c(C)c2c(c(O)c1C/C=C(\C)CCC(=O)N[C@@H](C(=O)O)C(C)C)C(=O)OC2`, the Ki came out at 1.23 µM.

As to `COc1c(C)c2c(c(O)c1C/C=C(\C)CCC(=O)N[C@@H](Cc1c[nH]c3ccccc13)C(=O)NC[C@H]1O[C@@H](n3cnc4c(N)ncnc43)[C@H](O)[C@@H]1O)C(=O)OC2`, the affinity corresponds to a Ki of 0.188 µM.

`COc1c(C)c2c(c(O)c1C/C=C(\C)CCC(=O)N[C@H](Cc1ccccc1)C(=O)O)C(=O)OC2`: the affinity, expressed as Ki, was 2.67 µM.

Consider `COc1c(C)c2c(c(O)c1C/C=C(\C)CCC(=O)N[C@@H](Cc1ccc(O)cc1)C(=O)O)C(=O)OC2`, for which affinity was put at a Ki of 0.215 µM.

For the compound `COc1c(C)c2c(c(O)c1C/C=C(\C)CCC(=O)NCC(=O)NC[C@H]1O[C@@H](n3cnc4c(N)ncnc43)[C@H](O)[C@@H]1O)C(=O)OC2`, the inhibition constant (Ki) amounted to 0.188 µM.

Consider `COC(=O)[C@@H](NC(=O)CC/C(C)=C/Cc1c(O)c2c(c(C)c1OC)COC2=O)C(C)C`, for which the affinity corresponds to a Ki of 0.967 µM.

A further test has as its system HL-60. Kind of test: Antiproliferative activity against human HL60 cells. Type of test: functional, cell-based.
The compound `COc1c(C)c2c(c(O)c1C/C=C(\C)CCC(=O)N[C@H](C(=O)O)C(C)C)C(=O)OC2` yielded a 50% inhibitory concentration (IC50) of 72 µM.

Take `COc1c(C)c2c(c(O)c1C/C=C(\C)CCC(=O)N[C@@H](C(=O)O)C(C)C)C(=O)OC2`: the IC50 is more than 100 µM.

`COc1c(C)c2c(c(O)c1C/C=C(\C)CCC(=O)N[C@@H](Cc1c[nH]c3ccccc13)C(=O)NC[C@H]1O[C@@H](n3cnc4c(N)ncnc43)[C@H](O)[C@@H]1O)C(=O)OC2` came in with an IC50 of more than 100 µM.

In the case of `COc1c(C)c2c(c(O)c1C/C=C(\C)CCC(=O)N[C@H](Cc1ccccc1)C(=O)O)C(=O)OC2`, the IC50 was more than 100 µM.

With `COc1c(C)c2c(c(O)c1C/C=C(\C)CCC(=O)N[C@@H](Cc1ccc(O)cc1)C(=O)O)C(=O)OC2`, the IC50 is more than 100 µM.

The compound `COc1c(C)c2c(c(O)c1C/C=C(\C)CCC(=O)NCC(=O)NC[C@H]1O[C@@H](n3cnc4c(N)ncnc43)[C@H](O)[C@@H]1O)C(=O)OC2` displayed an IC50 of more than 100 µM.

On to `COC(=O)[C@@H](NC(=O)CC/C(C)=C/Cc1c(O)c2c(c(C)c1OC)COC2=O)C(C)C`, for which the IC50 worked out at 31 µM.

For another test, the target named is Inosine-5'-monophosphate dehydrogenase 1 (Homo sapiens, UniProt P20839). Kind of test: Inhibition of IMPDH1 (unknown origin).
Sequence of Inosine-5'-monophosphate dehydrogenase 1 (P20839 whole entry): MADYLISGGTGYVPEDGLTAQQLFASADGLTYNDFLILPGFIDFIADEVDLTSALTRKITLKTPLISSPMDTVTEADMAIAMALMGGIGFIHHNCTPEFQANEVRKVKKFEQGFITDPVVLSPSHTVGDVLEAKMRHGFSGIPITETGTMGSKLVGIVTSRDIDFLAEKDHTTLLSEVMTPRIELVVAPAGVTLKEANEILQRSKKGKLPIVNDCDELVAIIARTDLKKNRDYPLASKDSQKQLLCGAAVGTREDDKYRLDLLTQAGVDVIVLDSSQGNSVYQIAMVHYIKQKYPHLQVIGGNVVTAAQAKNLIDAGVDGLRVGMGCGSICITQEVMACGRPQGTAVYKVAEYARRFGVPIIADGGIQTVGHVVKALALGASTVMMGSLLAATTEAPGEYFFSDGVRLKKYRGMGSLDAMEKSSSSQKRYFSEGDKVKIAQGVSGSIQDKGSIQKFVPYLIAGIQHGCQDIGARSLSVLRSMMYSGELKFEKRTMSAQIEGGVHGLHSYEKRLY
The compound `COc1c(C)c2c(c(O)c1C/C=C(\C)CCC(=O)N[C@H](C(=O)O)C(C)C)C(=O)OC2` returned a Ki of 0.132 µM.

As to `COc1c(C)c2c(c(O)c1C/C=C(\C)CCC(=O)N[C@@H](C(=O)O)C(C)C)C(=O)OC2`, the affinity, expressed as Ki, was 2.03 µM.

Regarding `COc1c(C)c2c(c(O)c1C/C=C(\C)CCC(=O)N[C@@H](Cc1c[nH]c3ccccc13)C(=O)NC[C@H]1O[C@@H](n3cnc4c(N)ncnc43)[C@H](O)[C@@H]1O)C(=O)OC2`, the Ki came out at 0.164 µM.

For `COc1c(C)c2c(c(O)c1C/C=C(\C)CCC(=O)N[C@H](Cc1ccccc1)C(=O)O)C(=O)OC2`, the Ki amounted to 4.31 µM.

Consider `COc1c(C)c2c(c(O)c1C/C=C(\C)CCC(=O)N[C@@H](Cc1ccc(O)cc1)C(=O)O)C(=O)OC2`, for which the affinity, expressed as Ki, was 1.68 µM.

Compound `COc1c(C)c2c(c(O)c1C/C=C(\C)CCC(=O)NCC(=O)NC[C@H]1O[C@@H](n3cnc4c(N)ncnc43)[C@H](O)[C@@H]1O)C(=O)OC2` returned an inhibition constant (Ki) of 0.259 µM.

For `COC(=O)[C@@H](NC(=O)CC/C(C)=C/Cc1c(O)c2c(c(C)c1OC)COC2=O)C(C)C`, the affinity corresponds to a Ki of 3.77 µM.

The subject of the next test is PC-3. Put plainly: Antiproliferative activity against human PC3 cells. It is filed as functional, cell-based.
For the compound `COc1c(C)c2c(c(O)c1C/C=C(\C)CCC(=O)N[C@H](C(=O)O)C(C)C)C(=O)OC2`, the IC50 was more than 100 µM.

`COc1c(C)c2c(c(O)c1C/C=C(\C)CCC(=O)N[C@@H](C(=O)O)C(C)C)C(=O)OC2` displayed an IC50 of more than 100 µM.

As for `COc1c(C)c2c(c(O)c1C/C=C(\C)CCC(=O)N[C@@H](Cc1c[nH]c3ccccc13)C(=O)NC[C@H]1O[C@@H](n3cnc4c(N)ncnc43)[C@H](O)[C@@H]1O)C(=O)OC2`, the IC50 is more than 100 µM.

With `COc1c(C)c2c(c(O)c1C/C=C(\C)CCC(=O)N[C@H](Cc1ccccc1)C(=O)O)C(=O)OC2`, the IC50 is more than 100 µM.

As for `COc1c(C)c2c(c(O)c1C/C=C(\C)CCC(=O)N[C@@H](Cc1ccc(O)cc1)C(=O)O)C(=O)OC2`, the half-maximal inhibitory concentration (IC50) was more than 100 µM.

The compound `COc1c(C)c2c(c(O)c1C/C=C(\C)CCC(=O)NCC(=O)NC[C@H]1O[C@@H](n3cnc4c(N)ncnc43)[C@H](O)[C@@H]1O)C(=O)OC2` came in with an IC50 of more than 100 µM.

Turning to `COC(=O)[C@@H](NC(=O)CC/C(C)=C/Cc1c(O)c2c(c(C)c1OC)COC2=O)C(C)C`, the IC50 is more than 100 µM.

As a reminder, the IC50 is the point on the concentration scale where inhibition reaches its midpoint. High values mean weaker potency, low ones greater potency. By Ki is commonly meant the dissociation constant of the complex between target and ligand, obtained from inhibition or displacement. High values mean a looser hold on the target, low ones a stronger hold on the target.

The values are drawn from ChEMBL document CHEMBL3097995, “NAD-based inhibitors with anticancer potential” (Bioorg Med Chem Lett, 2014).
